Here are results for 17 compounds from patent US7074789B2, “Kinase inhibitors” (Amgen Inc., priority 1999, dated 2006).

Holding throughout (format): biochemical
The target of one experiment is T1, Lck (Homo sapiens, UniProt P06239).
T1 construct: Kinases are expressed as either kinase domains or full length constructs; made in house
Description: Kinase inhibition assay (33P transfer), Lck. Conditions: read-out: Lck-1. The text has this: (§1) The inhibitor compounds described herein are screened in the following manner. Kinases suitable for use in the following protocol to determine kinase activity of the compounds described herein include, -but are not limited to: Lck, Lyn, Src, Fyn, Syk, Zap-70, Itk, Tec, Btk, EGFR, ErbB2, Kdr, Flt-1, Flt-3, Tek, c-Met, InsR, and AKT.
(§2) Kinases are expressed as either kinase domains or full length constructs fused to glutathione S-transferase (GST) or polyHistidine tagged fusion proteins in either E. colior Baculovirus-High Five expression systems. […] In some instances, kinases are co-expressed or mixed with purified or partially purified regulatory polypeptides prior to measurement of activity.
(§3) Briefly, The transfer of ^33PO4 from ATP to the synthetic substrates poly(Glu, Tyr) 4:1 or poly(Arg, Ser) 3:1 attached to the bioactive surface of microtiter plates serves as the basis to evaluate enzyme activity. After an incubation period, the amount of phosphate transferred is measured by first washing the plate with 0.5% phosphoric acid, adding liquid scintillant, and then counting in a liquid scintillation detector.

The target of the next experiment is T2, Zap-70 (Homo sapiens, UniProt P43403).
T2 construct: Kinases are expressed as either kinase domains or full length constructs; made in house
T2 sequence (P43403 1-619): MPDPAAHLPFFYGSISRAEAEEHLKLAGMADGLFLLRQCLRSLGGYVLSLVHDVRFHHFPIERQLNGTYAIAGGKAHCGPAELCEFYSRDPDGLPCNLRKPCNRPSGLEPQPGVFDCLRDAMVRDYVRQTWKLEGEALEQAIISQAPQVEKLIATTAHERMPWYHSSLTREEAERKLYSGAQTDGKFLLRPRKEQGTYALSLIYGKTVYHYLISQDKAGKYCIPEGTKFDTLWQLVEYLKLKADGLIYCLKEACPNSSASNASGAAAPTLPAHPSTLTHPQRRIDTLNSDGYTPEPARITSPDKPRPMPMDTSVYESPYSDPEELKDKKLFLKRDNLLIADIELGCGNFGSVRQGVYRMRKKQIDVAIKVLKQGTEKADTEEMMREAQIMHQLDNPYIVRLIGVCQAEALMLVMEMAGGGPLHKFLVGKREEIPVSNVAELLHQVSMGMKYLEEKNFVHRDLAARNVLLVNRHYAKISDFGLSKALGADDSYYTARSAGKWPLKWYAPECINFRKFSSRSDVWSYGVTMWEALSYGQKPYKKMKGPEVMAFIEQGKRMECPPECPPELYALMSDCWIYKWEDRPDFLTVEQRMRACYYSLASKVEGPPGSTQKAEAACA
Description: Kinase inhibition assay (33P transfer), Zap-70. The settings on record: read-out: Zap-1.
Excerpt: as §1, §2, §3

A further experiment addresses T3, Itk (Homo sapiens, UniProt Q08881).
T3 construct: Kinases are expressed as either kinase domains or full length constructs; made in house
T3 sequence (Q08881 1-620): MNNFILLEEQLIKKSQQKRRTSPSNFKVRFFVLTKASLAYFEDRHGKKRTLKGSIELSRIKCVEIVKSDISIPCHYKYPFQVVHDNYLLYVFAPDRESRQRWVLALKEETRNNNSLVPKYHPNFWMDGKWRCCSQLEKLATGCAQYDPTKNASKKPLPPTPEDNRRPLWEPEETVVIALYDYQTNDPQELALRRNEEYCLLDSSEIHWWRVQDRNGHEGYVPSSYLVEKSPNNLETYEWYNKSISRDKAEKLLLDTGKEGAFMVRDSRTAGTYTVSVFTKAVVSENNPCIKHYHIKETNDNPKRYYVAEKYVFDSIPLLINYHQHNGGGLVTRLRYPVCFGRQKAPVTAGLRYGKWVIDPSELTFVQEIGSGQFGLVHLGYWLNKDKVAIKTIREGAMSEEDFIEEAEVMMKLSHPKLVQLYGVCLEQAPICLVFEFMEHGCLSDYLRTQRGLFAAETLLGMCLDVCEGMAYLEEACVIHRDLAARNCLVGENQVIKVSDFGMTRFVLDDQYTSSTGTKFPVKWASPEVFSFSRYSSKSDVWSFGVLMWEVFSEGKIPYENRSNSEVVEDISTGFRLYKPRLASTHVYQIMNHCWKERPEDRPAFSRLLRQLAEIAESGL
Description: Kinase inhibition assay (33P transfer), Itk. The settings on record: read-out: Itk-1.
Excerpt: as §1
(§4) Kinases are expressed as either kinase domains or full length constructs fused to glutathione S-transferase (GST) or polyHistidine tagged fusion proteins in either E. colior Baculovirus-High Five expression systems. They are purified to near homogeneity by affinity chromatography essentially as previously described (Lehr et al., 1996; Gish et al., 1995). In some instances, kinases are co-expressed or mixed with purified or partially purified regulatory polypeptides prior to measurement of activity.
as §3, with “Kinase activity and inhibition are measured essentially by established protocols (Braunwalder et al., 1996). Briefly,” for “Briefly,”, “detector. The IC50 is determined by the concentration of compound that causes a 50% reduction in the amount of […] incorporated onto the substrate bound to the plate.” for “detector.”

The next experiment concerns the target T4, EGFR (Homo sapiens, UniProt P00533).
T4 construct: Kinases are expressed as either kinase domains or full length constructs; made in house
The experiment is described as follows: Kinase inhibition assay (33P transfer), EGFR. Conditions: Table 2, kinase inhibition class; read-out: EGFR-1.
Excerpt: as §1, §4
as §3, with “Kinase activity and inhibition are measured essentially by established protocols (Braunwalder et al., 1996). Briefly,” for “Briefly,”, “detector. The IC50 is determined by the concentration of compound that causes a 50% reduction in the amount of […] incorporated onto the substrate bound to the plate.” for “detector.”

Another experiment has as its target T5, Kdr (Homo sapiens, UniProt P35968).
T5 construct: Kinases are expressed as either kinase domains or full length constructs; made in house
Description: Kinase inhibition assay (33P transfer), Kdr. Conditions: read-out: KDR-1.
Excerpt: as §1, §2, §3

Another experiment addresses T6, c-Met (Homo sapiens, UniProt P08581).
T6 construct: Kinases are expressed as either kinase domains or full length constructs; made in house
Description: Kinase inhibition assay (33P transfer), c-Met. Conditions: Table 2, kinase inhibition class; read-out: Met-1.
Excerpt: as §1, §4
as §3, with “Kinase activity and inhibition are measured essentially by established protocols (Braunwalder et al., 1996). Briefly,” for “Briefly,”, “detector. The IC50 is determined by the concentration of compound that causes a 50% reduction in the amount of […] incorporated onto the substrate bound to the plate.” for “detector.”

Another experiment concerns the target T7, AKT (Homo sapiens, UniProt Q9Y243).
T7 construct: Kinases are expressed as either kinase domains or full length constructs; made in house
The experiment is described as follows: Kinase inhibition assay (33P transfer), AKT. The settings on record: Table 2, kinase inhibition class; read-out: AKT3-1.
Excerpt: as §1, §2, §3

Where two headings read alike, the source gives them in different places.

T4 sequence (P00533 25-1210, species assumed): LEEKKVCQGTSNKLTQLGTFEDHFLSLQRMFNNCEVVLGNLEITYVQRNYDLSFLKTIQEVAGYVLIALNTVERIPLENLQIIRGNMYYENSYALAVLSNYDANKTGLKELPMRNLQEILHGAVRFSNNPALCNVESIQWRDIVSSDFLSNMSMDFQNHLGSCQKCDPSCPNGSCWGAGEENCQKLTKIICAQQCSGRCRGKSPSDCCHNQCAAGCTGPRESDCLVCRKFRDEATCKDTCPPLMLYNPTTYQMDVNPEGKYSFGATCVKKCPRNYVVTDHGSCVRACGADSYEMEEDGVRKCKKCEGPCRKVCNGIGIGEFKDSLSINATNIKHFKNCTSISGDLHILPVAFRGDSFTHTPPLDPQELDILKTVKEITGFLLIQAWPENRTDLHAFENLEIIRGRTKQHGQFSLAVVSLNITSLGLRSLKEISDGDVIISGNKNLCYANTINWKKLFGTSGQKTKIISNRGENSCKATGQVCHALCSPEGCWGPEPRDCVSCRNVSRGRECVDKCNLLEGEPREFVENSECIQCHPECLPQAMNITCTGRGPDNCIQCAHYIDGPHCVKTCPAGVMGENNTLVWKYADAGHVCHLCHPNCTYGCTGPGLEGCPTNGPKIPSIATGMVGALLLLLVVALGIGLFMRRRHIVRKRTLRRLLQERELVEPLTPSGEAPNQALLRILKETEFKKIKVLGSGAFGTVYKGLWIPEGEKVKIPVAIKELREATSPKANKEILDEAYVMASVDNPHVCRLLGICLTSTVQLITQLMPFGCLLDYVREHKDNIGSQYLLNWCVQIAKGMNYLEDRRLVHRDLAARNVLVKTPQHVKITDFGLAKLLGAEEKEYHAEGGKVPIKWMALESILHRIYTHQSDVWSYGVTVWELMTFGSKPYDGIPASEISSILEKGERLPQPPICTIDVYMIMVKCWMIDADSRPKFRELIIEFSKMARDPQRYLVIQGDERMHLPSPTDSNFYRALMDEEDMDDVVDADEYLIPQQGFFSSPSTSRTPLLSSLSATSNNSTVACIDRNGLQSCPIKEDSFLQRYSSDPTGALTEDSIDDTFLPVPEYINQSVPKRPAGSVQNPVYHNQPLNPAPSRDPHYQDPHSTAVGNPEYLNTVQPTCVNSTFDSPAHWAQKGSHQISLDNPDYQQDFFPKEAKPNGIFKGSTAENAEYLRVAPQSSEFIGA
T7 sequence (Q9Y243 whole entry, the tested form may be a part): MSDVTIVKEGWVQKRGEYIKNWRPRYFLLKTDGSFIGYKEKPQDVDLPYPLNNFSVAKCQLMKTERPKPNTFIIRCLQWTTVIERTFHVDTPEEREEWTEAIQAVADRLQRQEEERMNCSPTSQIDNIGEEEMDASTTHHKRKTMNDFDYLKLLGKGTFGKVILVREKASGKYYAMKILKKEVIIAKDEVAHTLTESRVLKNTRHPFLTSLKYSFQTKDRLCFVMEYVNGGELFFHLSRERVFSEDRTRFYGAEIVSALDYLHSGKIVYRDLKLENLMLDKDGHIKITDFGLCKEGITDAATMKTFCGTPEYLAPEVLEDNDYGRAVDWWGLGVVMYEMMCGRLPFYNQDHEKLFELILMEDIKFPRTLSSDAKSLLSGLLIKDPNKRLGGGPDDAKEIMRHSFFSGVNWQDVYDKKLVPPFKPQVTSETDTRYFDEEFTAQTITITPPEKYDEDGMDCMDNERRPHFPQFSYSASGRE
T1 sequence (P06239 whole entry, species assumed, the tested form may be a part): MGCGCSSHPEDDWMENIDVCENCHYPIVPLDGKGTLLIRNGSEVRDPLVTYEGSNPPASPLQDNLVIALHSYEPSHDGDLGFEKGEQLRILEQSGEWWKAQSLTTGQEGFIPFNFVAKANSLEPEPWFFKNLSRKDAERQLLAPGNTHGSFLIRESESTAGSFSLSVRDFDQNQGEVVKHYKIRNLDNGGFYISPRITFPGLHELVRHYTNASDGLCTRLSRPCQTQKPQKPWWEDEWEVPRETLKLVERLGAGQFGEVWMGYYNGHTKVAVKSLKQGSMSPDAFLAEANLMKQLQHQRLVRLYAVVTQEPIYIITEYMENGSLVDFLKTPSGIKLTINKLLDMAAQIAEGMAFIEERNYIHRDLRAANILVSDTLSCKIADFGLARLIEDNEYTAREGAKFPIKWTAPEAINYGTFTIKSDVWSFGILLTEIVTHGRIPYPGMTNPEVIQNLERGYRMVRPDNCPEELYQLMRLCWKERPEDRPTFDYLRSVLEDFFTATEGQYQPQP
T5 sequence (P35968 20-1356, species assumed): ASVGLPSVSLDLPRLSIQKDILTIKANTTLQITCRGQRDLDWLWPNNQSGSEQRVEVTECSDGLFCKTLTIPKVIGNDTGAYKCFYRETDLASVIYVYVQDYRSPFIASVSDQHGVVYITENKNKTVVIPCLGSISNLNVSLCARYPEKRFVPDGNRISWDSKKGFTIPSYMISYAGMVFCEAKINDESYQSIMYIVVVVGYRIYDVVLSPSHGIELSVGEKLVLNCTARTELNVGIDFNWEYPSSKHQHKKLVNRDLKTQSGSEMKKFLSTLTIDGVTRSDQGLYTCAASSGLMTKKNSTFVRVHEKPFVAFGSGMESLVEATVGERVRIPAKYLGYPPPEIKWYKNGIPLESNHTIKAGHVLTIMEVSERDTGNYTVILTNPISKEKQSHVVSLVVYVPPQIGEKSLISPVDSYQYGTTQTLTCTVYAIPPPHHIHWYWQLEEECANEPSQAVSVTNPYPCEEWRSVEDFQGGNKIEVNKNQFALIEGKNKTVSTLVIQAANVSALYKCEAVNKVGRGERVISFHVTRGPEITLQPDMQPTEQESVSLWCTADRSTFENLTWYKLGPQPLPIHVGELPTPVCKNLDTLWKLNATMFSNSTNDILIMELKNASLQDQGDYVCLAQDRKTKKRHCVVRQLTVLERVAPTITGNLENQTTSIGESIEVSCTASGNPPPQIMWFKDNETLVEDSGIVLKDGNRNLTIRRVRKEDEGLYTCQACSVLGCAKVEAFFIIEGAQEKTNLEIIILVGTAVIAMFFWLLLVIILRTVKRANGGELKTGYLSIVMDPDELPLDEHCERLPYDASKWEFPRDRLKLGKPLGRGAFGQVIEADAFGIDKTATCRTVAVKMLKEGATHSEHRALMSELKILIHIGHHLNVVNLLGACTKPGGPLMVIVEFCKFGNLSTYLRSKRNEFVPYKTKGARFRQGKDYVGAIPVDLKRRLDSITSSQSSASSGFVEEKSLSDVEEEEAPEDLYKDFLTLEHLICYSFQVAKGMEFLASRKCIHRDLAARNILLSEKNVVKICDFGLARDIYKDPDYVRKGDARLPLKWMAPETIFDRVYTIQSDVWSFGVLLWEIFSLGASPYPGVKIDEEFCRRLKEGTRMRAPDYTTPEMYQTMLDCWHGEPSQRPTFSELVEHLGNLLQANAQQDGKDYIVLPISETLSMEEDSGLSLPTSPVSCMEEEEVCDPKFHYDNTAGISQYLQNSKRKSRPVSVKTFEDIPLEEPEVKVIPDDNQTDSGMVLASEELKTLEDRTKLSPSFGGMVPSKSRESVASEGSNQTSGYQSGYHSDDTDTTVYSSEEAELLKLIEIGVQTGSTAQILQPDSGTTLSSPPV
T6 sequence (P08581 25-1390): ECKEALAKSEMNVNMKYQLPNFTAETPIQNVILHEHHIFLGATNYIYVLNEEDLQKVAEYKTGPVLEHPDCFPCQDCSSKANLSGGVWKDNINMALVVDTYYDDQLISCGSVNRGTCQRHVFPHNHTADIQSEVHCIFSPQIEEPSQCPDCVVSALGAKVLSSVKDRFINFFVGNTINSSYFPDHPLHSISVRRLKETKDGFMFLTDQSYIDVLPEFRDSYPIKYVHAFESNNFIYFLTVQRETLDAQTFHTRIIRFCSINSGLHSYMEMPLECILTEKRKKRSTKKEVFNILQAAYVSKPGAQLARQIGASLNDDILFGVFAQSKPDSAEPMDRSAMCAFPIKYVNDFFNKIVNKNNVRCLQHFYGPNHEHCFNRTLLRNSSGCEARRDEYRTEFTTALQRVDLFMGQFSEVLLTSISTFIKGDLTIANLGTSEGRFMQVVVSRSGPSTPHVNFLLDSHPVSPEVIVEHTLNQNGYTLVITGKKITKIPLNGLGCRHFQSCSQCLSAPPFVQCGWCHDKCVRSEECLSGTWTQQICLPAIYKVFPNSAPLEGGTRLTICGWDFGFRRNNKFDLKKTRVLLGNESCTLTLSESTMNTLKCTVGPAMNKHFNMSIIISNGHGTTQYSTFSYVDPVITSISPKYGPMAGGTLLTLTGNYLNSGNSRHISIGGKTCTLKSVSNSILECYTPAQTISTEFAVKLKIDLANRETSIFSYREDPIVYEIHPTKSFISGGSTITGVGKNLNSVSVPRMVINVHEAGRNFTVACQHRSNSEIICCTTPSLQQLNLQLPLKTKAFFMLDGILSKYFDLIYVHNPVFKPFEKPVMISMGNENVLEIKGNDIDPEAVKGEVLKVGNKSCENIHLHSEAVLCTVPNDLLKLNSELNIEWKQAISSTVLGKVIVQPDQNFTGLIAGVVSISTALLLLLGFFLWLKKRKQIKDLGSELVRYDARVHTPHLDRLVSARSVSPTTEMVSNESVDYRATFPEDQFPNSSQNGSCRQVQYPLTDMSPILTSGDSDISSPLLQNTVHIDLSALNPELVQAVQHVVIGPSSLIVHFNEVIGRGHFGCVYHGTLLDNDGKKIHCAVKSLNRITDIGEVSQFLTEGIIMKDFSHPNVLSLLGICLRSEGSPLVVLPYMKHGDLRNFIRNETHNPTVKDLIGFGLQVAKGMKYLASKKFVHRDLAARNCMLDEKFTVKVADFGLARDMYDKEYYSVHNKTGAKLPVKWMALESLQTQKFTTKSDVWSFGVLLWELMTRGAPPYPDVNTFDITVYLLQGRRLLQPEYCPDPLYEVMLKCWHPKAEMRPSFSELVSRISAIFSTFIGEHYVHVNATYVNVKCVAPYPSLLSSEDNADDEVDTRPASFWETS

Take `COc1cc(Nc2ncnc(Nc3nc4ccccc4s3)n2)cc(OC)c1OC` [Compound 469]: the IC50 was above 11 µM on Lck; above 11 µM on Zap-70; above 11 µM on Itk; above 11 µM on EGFR; 0.975 to 5.85 µM at Kdr; above 11 µM on c-Met. Further, the IC50 at AKT was above 11 µM.

As for `COc1cc(Nc2ncnc(-c3ccnc(NCCCN)c3)n2)cc(OC)c1OC` [Compound 45], the IC50 on Lck (Table 3) was 0.972 to 5.83 µM; on Zap-70 (Table 3), above 10.9 µM; at Itk (Table 3), above 10.9 µM; on EGFR, above 10.9 µM; at Kdr (Table 3) it was above 10.9 µM; on c-Met, above 10.9 µM. On AKT, the IC50 is above 10.9 µM.

With `COc1cc(Nc2ncnc(-n3c(=O)sc4ccccc43)n2)cc(OC)c1OC` [Compound 424], the IC50 at Lck (Table 3) is above 10.9 µM; at Zap-70 (Table 3), above 10.9 µM; on Itk (Table 3) it was above 10.9 µM; at EGFR it was above 10.9 µM; on Kdr (Table 3), 5.83 to 8.51 µM; on c-Met it was above 10.9 µM. Further, the IC50 at AKT is above 10.9 µM.

As for `O=c1[nH]c2ccccc2n1-c1ncnc(Nc2ccc3ccccc3c2)n1` [Compound 684], the IC50 was above 12.7 µM at Lck; above 12.7 µM at Zap-70; above 12.7 µM at Itk; above 12.7 µM at EGFR; 6.77 to 9.88 µM on Kdr; above 12.7 µM on c-Met. Besides, the IC50 at AKT is above 12.7 µM.

As to `CC(C)(C)c1cc(Nc2ncnc(Cl)n2)[nH]n1` [Compound 975], the IC50 on Lck, on Zap-70, at Itk, at EGFR, on Kdr and on c-Met was above 17.8 µM each time. Besides, the IC50 at AKT is above 17.8 µM.

In the case of `CCN(CC)CCCNc1ccc(-c2ncnc(Nc3cc(OC)c(OC)c(OC)c3)n2)cn1` [Compound 448], the IC50 is 0.855 to 5.13 µM on Lck (Table 3); above 9.62 µM at Zap-70 (Table 3); above 9.62 µM on Itk (Table 3); above 9.62 µM at EGFR; 5.13 to 7.49 µM at Kdr (Table 3); above 9.62 µM on c-Met. Moreover, the IC50 at AKT is above 9.62 µM.

Consider `CN(C)c1ccc(Nc2ncnc(-n3c(N)nc4ccccc43)n2)cc1` [Compound 527], for which the IC50 at Lck was 1.15 to 6.93 µM; on Zap-70, above 13 µM; at Itk, 1.15 to 6.93 µM; at EGFR, 6.93 to 10.1 µM; at Kdr, below 1.15 µM; on c-Met it was 1.15 to 6.93 µM. For the same compound, the IC50 on AKT was above 13 µM.

As for `N#Cc1cccc(Nc2ncnc(-n3c(=O)[nH]c4ccccc43)n2)c1` [Compound 486], the IC50 on Lck was 1.21 to 7.29 µM; on Zap-70, above 13.7 µM; at Itk it was above 13.7 µM; on EGFR, above 13.7 µM; on Kdr, 1.21 to 7.29 µM; on c-Met, above 13.7 µM. Besides, the IC50 at AKT is above 13.7 µM.

As for `COc1cc(Nc2ncnc(-n3c(=O)[nH]c4ccccc43)n2)cc(OCCN2CCOCC2)c1OC` [Compound 1039], the IC50 at Lck is 0.81 to 4.86 µM; at Zap-70 it was above 9.12 µM; on Itk, above 9.12 µM; on EGFR it was above 9.12 µM; on Kdr, below 0.81 µM; at c-Met, above 9.12 µM. Also, the IC50 on AKT was above 9.12 µM.

For `N#Cc1ccc(Nc2ncnc(-n3c(=O)[nH]c4ccccc43)n2)cc1` [Compound 485], the IC50 at Lck is above 13.7 µM; on Zap-70 it was above 13.7 µM; on Itk, above 13.7 µM; on EGFR it was above 13.7 µM; at Kdr, 1.21 to 7.29 µM; on c-Met it was above 13.7 µM. For the same compound, on AKT, the IC50 was above 13.7 µM.

For the compound `COc1cc(Nc2ncnc(-c3cccnc3NCCN3CCCCC3)n2)cc(OC)c1OC` [Compound 1079], the IC50 on Lck, on Zap-70, on Itk, on EGFR, at Kdr and on c-Met was above 9.67 µM in each case. For the same compound, the IC50 on AKT is above 9.67 µM.

Consider `COc1cc(Nc2ncnc(-c3ccc(N4CCOCC4)nc3)n2)cc(OC)c1OC` [Compound 434], for which the IC50 on Lck (Table 3), at Zap-70 (Table 3), at Itk (Table 3), on EGFR, on Kdr (Table 3) and at c-Met was above 10.6 µM throughout. Moreover, the IC50 at AKT was above 10.6 µM.

For `CC(C)(C)c1cc(Nc2ncnc(Nc3cccc(CO)c3)n2)[nH]n1` [Compound 499], the IC50 at Lck was 1.18 to 7.07 µM; on Zap-70, above 13.3 µM; on Itk, 1.18 to 7.07 µM; at EGFR, 1.18 to 7.07 µM; at Kdr it was 1.18 to 7.07 µM; on c-Met, 1.18 to 7.07 µM. The IC50 on AKT is above 13.3 µM.

Take `NC(=O)c1ccc(Nc2ncnc(-n3c(=O)[nH]c4ccccc43)n2)cc1` [Compound 419]: the IC50 on Lck (Table 3) was above 13 µM; on Zap-70 (Table 3), above 13 µM; on Itk (Table 3) it was above 13 µM; at EGFR, above 13 µM; on Kdr (Table 3) it was 1.15 to 6.91 µM; at c-Met, above 13 µM. On AKT, the IC50 was above 13 µM.

On to `COc1cc(Nc2ncnc(-c3ccc(NCCCN)nc3)n2)cc(OC)c1OC` [Compound 472], for which the IC50 on Lck is above 10.9 µM; at Zap-70, above 10.9 µM; at Itk, above 10.9 µM; at EGFR, above 10.9 µM; on Kdr, 0.972 to 5.83 µM; at c-Met, above 10.9 µM. For the same compound, the IC50 on AKT was above 10.9 µM.

Turning to `O=c1[nH]c2ccccc2n1-c1ncnc(Nc2ncccn2)n1` [Compound 490], the IC50 at Lck, on Zap-70, on Itk, at EGFR, at Kdr and at c-Met was above 14.7 µM throughout. Further, the IC50 on AKT is above 14.7 µM.

Regarding `COc1ncnc(Nc2cc(OC)c(OC)c(OC)c2)n1` [Compound 421], the IC50 at Lck (Table 3), at Zap-70 (Table 3), at Itk (Table 3), on EGFR, on Kdr (Table 3) and on c-Met was above 15.4 µM throughout. Besides, on AKT, the IC50 is above 15.4 µM.
